Reference: the supplement of paper PMC7017272
± gives the standard deviation of the averaged measurements.

Columns and labels:
Details in all cases: treatment time: 3 days
UT-SCC-28 = experiment: drug sensitivity score (DSS); higher = more sensitive; extreme values may be limits of the assay
In short: (§1)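 HPV-negative HNSCC cell lines were plated at 500 cells/well in 384-well plates, either on plastic, on wells coated with Matrigel or Myogel (500 µg/mL), or embedded in Matrigel or Myogel plus rat collagen I. Each compound was tested at five 10-fold concentrations over 3 days. Viability was measured by CellTiter-Glo 2.0 luminescence, and IC50, maximal inhibition and drug sensitivity score came from percent-inhibition dose–response curves fitted in the FIMM pipeline after normalisation to vehicle (0.1% DMSO) and cell-killing control wells.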

UT-SCC-40 = experiment: as above
In short: as §1

UT-SCC-42A = experiment: as above
In short: as §1

UT-SCC-42B = experiment: as above
In short: as §1

UT-SCC-44 = experiment: as above
In short: as §1

UT-SCC-73 = experiment: as above
In short: as §1

UT-SCC-81 = experiment: as above
In short: as §1

UT-SCC-8 = experiment: as above
In short: as §1

UT-SCC-24A = experiment: relative IC50 (midpoint of the fitted curve; maximal inhibition may be below 50%); higher = less potent
Experimental: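 HNSCC cell lines (500 cells/well, 384-well) were cultured on plastic, on top of (2D) or embedded (3D) in Matrigel or human leiomyoma matrix Myogel (500 ug/mL; Myogel 3D mixed with rat collagen I). Cells were treated for 3 days with 5 ten-fold concentrations of each drug, and viability was read by CellTiter-Glo. Viability was normalised to DMSO (0% inhibition) and 100 uM benzethonium chloride (100% inhibition) controls and fitted with the FIMM DSRT pipeline to give IC50 (nM), maximal % inhibition and the drug sensitivity score (DSS). Suffixes _1/_2/_3 on drug names are replicates.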

[1] = culture condition: embedded in Myogel + collagen I
[2] = culture condition: on top of Matrigel
[3] = culture condition: plastic 2D (no matrix)
[4] = culture condition: embedded in Matrigel
[5] = culture condition: on top of Myogel

Cn1c(=O)n(-c2ccc(C(C)(C)C#N)cc2)c2c3cc(-c4cnc5ccccc5c4)ccc3ncc21 [Dactolisib]
drug sensitivity score (UT-SCC-28; [1]): 0.133 ± 0.23 DSS | drug sensitivity score (UT-SCC-28; [2]): 0.1 ± 0.17 DSS | drug sensitivity score (UT-SCC-28; [3]): 0 DSS | drug sensitivity score (UT-SCC-40; [4]): 0.5 ± 0.87 DSS | drug sensitivity score (UT-SCC-40; [1]): 0 DSS | drug sensitivity score (UT-SCC-40; [2]): 0 DSS | drug sensitivity score (UT-SCC-40; [5]): 0 DSS | drug sensitivity score (UT-SCC-40; [3]): 0 DSS | drug sensitivity score (UT-SCC-42A; [4]): 0 DSS | drug sensitivity score (UT-SCC-42A; [1]): 0 DSS | drug sensitivity score (UT-SCC-42A; [2]): 0 DSS | drug sensitivity score (UT-SCC-42A; [5]): 0 DSS | drug sensitivity score (UT-SCC-42A; [3]): 0 DSS | drug sensitivity score (UT-SCC-42B; [4]): 0 DSS | drug sensitivity score (UT-SCC-42B; [2]): 0 DSS | drug sensitivity score (UT-SCC-42B; [5]): 0 DSS | drug sensitivity score (UT-SCC-42B; [3]): 0 DSS | drug sensitivity score (UT-SCC-44; [4]): 0 DSS | drug sensitivity score (UT-SCC-44; [1]): 0 DSS | drug sensitivity score (UT-SCC-44; [2]): 0 DSS | drug sensitivity score (UT-SCC-44; [5]): 0 DSS | drug sensitivity score (UT-SCC-44; [3]): 0.9 ± 1.6 DSS | drug sensitivity score (UT-SCC-73; [4]): 0 DSS | drug sensitivity score (UT-SCC-73; [1]): 0 DSS | drug sensitivity score (UT-SCC-73; [2]): 0 DSS | drug sensitivity score (UT-SCC-73; [5]): 0 DSS | drug sensitivity score (UT-SCC-73; [3]): 0 DSS | drug sensitivity score (UT-SCC-81; [4]): 3.7 ± 3.4 DSS | drug sensitivity score (UT-SCC-81; [1]): 0 DSS | drug sensitivity score (UT-SCC-81; [2]): 0 DSS | drug sensitivity score (UT-SCC-81; [5]): 0 DSS | drug sensitivity score (UT-SCC-81; [3]): 0 DSS | drug sensitivity score (UT-SCC-8; [4]): 0 DSS | drug sensitivity score (UT-SCC-8; [1]): 0.6 ± 0.66 DSS | drug sensitivity score (UT-SCC-8; [2]): 0 DSS | drug sensitivity score (UT-SCC-8; [5]): 0.133 ± 0.15 DSS | drug sensitivity score (UT-SCC-8; [3]): 0 DSS | relative IC50 (UT-SCC-24A; [2]): > 0.989 µM | relative IC50 (UT-SCC-24A; [5]): > 0.989 µM | relative IC50 (UT-SCC-24A; [3]): > 0.989 µM
